Laboratory results published in paper PMC7367283, “A PIP2 substitute mediates voltage sensor-pore coupling in KCNQ activation” (Communications Biology, 2020).

Biological target: T1, KV4.2 (Rattus norvegicus, UniProt Q63881)
T1 sequence (Q63881 1-630): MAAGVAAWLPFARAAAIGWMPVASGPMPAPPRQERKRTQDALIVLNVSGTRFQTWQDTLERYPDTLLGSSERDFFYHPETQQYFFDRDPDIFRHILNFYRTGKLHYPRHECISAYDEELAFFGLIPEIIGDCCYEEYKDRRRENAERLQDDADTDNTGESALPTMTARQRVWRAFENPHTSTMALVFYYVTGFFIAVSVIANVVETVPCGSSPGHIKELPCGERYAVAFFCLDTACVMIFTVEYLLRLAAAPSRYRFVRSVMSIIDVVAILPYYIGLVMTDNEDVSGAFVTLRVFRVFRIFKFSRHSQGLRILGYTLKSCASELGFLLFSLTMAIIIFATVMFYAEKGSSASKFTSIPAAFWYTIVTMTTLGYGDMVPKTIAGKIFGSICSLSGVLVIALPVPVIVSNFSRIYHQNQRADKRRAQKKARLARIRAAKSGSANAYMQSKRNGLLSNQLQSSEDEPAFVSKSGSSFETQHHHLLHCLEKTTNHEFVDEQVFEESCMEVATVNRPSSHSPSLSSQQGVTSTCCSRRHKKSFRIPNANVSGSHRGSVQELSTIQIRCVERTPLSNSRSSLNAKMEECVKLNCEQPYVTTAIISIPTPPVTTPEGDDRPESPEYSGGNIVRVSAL
Test: Two-electrode voltage clamp of KV4.2 in Xenopus oocytes
Format: cell-based, human
Conditions: 10 µM CP1
Excerpt: Since CP1 has a similar effect to PIP2 in mediating VSD-pore coupling in KCNQ channels, we tested if CP1 has effects on other ion channels that are also sensitive to PIP2 or are voltage activated and share general structural features of the VSD and the pore with KCNQ. […] On the other hand, NaV1.5 and KV4.2 are voltage-gated ion channels.
Fig. 6 Effects of CP1 on other ion channels expressed in Xenopus oocytes. a Currents of Kir1.1, CaV1.2, NaV1.5, hERG, and KV4.2 before and after application of 10 µM CP1, respectively. The voltages for holding, test, and returning pulses were Kir1.1, 0 mV, −100 to +60 mV, 0; CaV1.2, −100 mV, −100 to +60, −100 mV; NaV1.5, −100, −120 to +40 mV, −120 mV; hERG, −80 mV, −90 to +60 mV, −60 mV; KV4.2, −80 mV, −100 mV to +80 mV, −40 mV; HCN4, −30 mV, −30 to −140 mV, −120 mV. b Current–voltage relations of Kir1.1 channel in the absence or presence of 10 µM CP1 (n = 7). c–g G–V relations of indicated channels with and without 10 µM CP1. The ΔV1/2 of G–V relations (mV) are CaV1.2, 3.38 ± 0.71 mV (c); NaV1.5, −2.26 ± 0.95 mV (d); hERG, 6.85 ± 1.81 mV (e); KV 4.2, −2.26 ± 2.88 mV (f); HCN4, 17.13 ± 1.59 mV (g).
Complementary DNA (cDNA) encoding human KCNQ1 (UniProtKB/Swiss‐Prot under accession no. P51787), KCNQ2 (O43526), KCNQ3 (O43525), KCNE1 (P15382), Kir1.1 (P48048), hERG (Q12809), KV4.2 (Q63881), NaV1.5 (Q14524), NaV β1 (Q07699), CaV1.2 (Q13936), CaV β1a (Q02641), CaV α2/δ1 (P54289), and HCN4 (Q9Y3Q4) were subcloned into oocyte expression vectors, respectively. Site-directed mutations of the KCNQ1 channel were all produced by overlap extension polymerase chain reaction (PCR) with high-fidelity Pfu polymerase (Stratagene, CA). The presence of the desired mutation was verified by sequencing the PCR-amplified regions. All the primer sequences used in this study are available in Supplementary Table 1. The complementary RNA (cRNA) of all these channels and mutations was transcribed in vitro with the T3, T7, or SP6 polymerase mMessage mMachine kit (Invitrogen, Thermo Fisher Scientific, MO).
The whole-oocyte ionic currents were recorded with a GeneClamp 500B amplifier (Axon Instruments, CA) or iTEV90 amplifier (HEKA, Germany) and then sampled at 1 kHz and low-pass-filtered at 2 kHz. The Patchmaster software (HEKA, Germany) was used to acquire data. The Kir1.1 current was recorded with a high K^+ bath solution containing (in mM) 96 KCl, 4 NaCl, 1 CaCl2, 2 MgCl2, and 10 HEPES, pH 7.3–7.4. The HCN4 current was recorded in ND66 solution containing (in mM) 66 NaCl, 32 KCl, 1.8 CaCl2, 1 MgCl2, and 5 HEPES, pH 7.6. All the other potassium channels were recorded in ND96 solution. The currents of CaV1.2 channel were recorded in 40 mM Ba^2+ bath solution containing (in mM) 40 Ba(OH)2, 50 TEA-OH, 2 KOH, and 5 HEPES, adjusted to pH 7.4 with methanesulfonic acid. CP1 (DISODIUM 5-BROMO-2-[9-CHLORO-3-(SULFONATOOXY) NAPHTHO [1,2-B] THIEN-2-YL]-1H-INDOL-3-YL SULFATE, Sigma-Aldrich, MO) and Chromanol 293B (Sigma-Aldrich, MO) were dissolved in bath solutions. All the chemicals were purchased from Sigma-Aldrich. To measure the I–V relations of the Kir1.1 channel, the test voltage was set from −100 to +60 mV for 1 s with 20-mV increments. The test pulses were stepped from a holding potential of 0 mV and then stepped back to 0 mV. The HCN4 currents were recorded by a test pulse between −30 and −140 mV in 10-mV step from a holding potential of −30 mV. For all the other potassium channels and CaV1.2 channel, the holding potential was −80 or −100 mV, and the test pulse was applied with 10-mV increment, which was followed with a repolarization pulse at −40 mV before returning to the holding potential. The durations of test and the repolarization pulse vary for different channels to allow the activation and deactivation of the channel to reach their steady states.

## O=S(=O)([O-])Oc1c(-c2sc3c(ccc4cccc(Cl)c43)c2OS(=O)(=O)[O-])[nH]c2ccc(Br)cc12.[Na+].[Na+] [CP1, DISODIUM 5-BROMO-2-[9-CHLORO-3-(SULFONATOOXY) NAPHTHO [1,2-B] THIEN-2-YL]-1H-INDOL-3-YL SULFATE]
  ΔV1/2 of G–V relations: −2.26 ± 2.88 mV
Voltage 0 mV
  G/Gmax Mean (Fig. 6f): 0.3489
Voltage 10 mV
  G/Gmax Mean (Fig. 6f): 0.4229
Voltage 20 mV
  G/Gmax Mean (Fig. 6f): 0.5032
Voltage 30 mV
  G/Gmax Mean (Fig. 6f): 0.5901
Voltage 40 mV
  G/Gmax Mean (Fig. 6f): 0.6796
Voltage 50 mV
  G/Gmax Mean (Fig. 6f): 0.7731
Voltage 60 mV
  G/Gmax Mean (Fig. 6f): 0.8507
Voltage 70 mV
  G/Gmax Mean (Fig. 6f): 0.9365
Voltage 80 mV
  G/Gmax Mean (Fig. 6f): 1.0000
Voltage -10 mV
  G/Gmax Mean (Fig. 6f): 0.2734
Voltage -20 mV
  G/Gmax Mean (Fig. 6f): 0.2218
Voltage -30 mV
  G/Gmax Mean (Fig. 6f): 0.1858
Voltage -40 mV
  G/Gmax Mean (Fig. 6f): 0.1969
Voltage -50 mV
  G/Gmax Mean (Fig. 6f): 0.2134
